Source: patent US20260014170A1, “PRODRUGS FOR DELIVERY OF TE[…] THE CENTRAL NERVOUS SYSTEM” (The Johns Hopkins University, priority 2022, published 2026)

Key:
[1] = female rats, IN, 1.1 mg/kg equivalent of Testosterone, 1h post dose
Experimental: All prodrugs were administered intranasally (IN) at a dose of 1.1 mg/kg equivalent of Testosterone using a formulation of 5% Tween-80, 5% DMSO and 90% PBS containing 10 mM HEPES. Blood and brain were collected after sacrificing the animals at predetermined time point. Plasma was harvested from blood by centrifugation at 3,000 RPM for 15 min and stored at −80° C. Brain tissues were harvested following blood collection and immediately snap frozen in liquid nitrogen and stored at −80° C. until LC-MS/MS analysis. Calibration standards were prepared using naïve female rat plasma or brain with additions of respective prodrugs. For quantifying the released testosterone in the pharmacokinetic samples, plasma samples (20 μL) were processed by protein precipitation method by addition of 200 μL of acetonitrile containing internal standard (losartan: 0.5 μM), followed by vortex-mixing for 30 s and then centrifugation at 10,000 RPM for 10 min at 4° C. Brain tissues were diluted 1:5 w/v with acetonitrile containing losartan (0.5 μm) and homogenized, followed by vortex-mixing and centrifugation at 10,000 RPM for 10 min at 4° C. A 50 μL aliquot of the supernatant was diluted with 50 μL of water and transferred to 250 μL polypropylene autosampler vials sealed with teflon caps. Then, 2 μL of the sample was injected into the LC-MS/MS system for analysis.
The in vivo pharmacokinetics of prodrugs (P1, P3, P4, P5, P6, P7, P8, P9, P10, P11, P12, P13 and P14) were evaluated in female rats.

[2] = In vitro metabolic stability in rat brain homogenates; format: in vitro ADME; conditions: 10 μM, 37° C., 0 hour to 1 hour, n=3
Experimental: In vitro metabolic stability assessment was performed using brain homogenates. For the brain homogenates washed tissues were diluted 10-fold in 0.1-M potassium phosphate buffer and homogenized using a probe sonicator. […] Samples from each incubation at predetermined time points (0, 0.5, and 1h) were quenched with 3X volumes of acetonitrile containing the internal standard (IS; losartan: 0.5 μm). […] Disappearance of the intact compound and release of Testosterone were measured using liquid chromatography tandem mass spectrometry (LC-MS; full scan mode).
The metabolic stability of prodrugs (n=3) was evaluated using rat brain homogenates. The rat brain was homogenized using 100-mM phosphate buffer with 1:10 dilution (w/v). 10 μM concentration of the compounds was incubated at 37° C. and stability was evaluated from 0 hour to 1 hour. After incubation samples were precipitated using acetonitrile containing internal standard and quantified using high-resolution LC-MS/MS.

SMILES: CC(C)OC(=O)OCO[C@H]1CC[C@H]2[C@@H]3CCC4=CC(=O)CC[C@]4(C)[C@H]3CC[C@]12C [Prodrug P1, (((8R,9S,10R,13S,14S,17S)-10,13-Dimethyl-3-oxo-2,3,6,7,8,9,10,11,12,13,14,15,16,17-tetradecahydro-1H-cyclopenta[α]phenanthren-17-yl)oxy)methyl isopropyl carbonate]
- plasma levels compared with testosterone [1]: lower
- stable in brain homogenate [2]: 20%

SMILES: CN(C)CC(=O)O[C@H]1CC[C@H]2[C@@H]3CCC4=CC(=O)CC[C@]4(C)[C@H]3CC[C@]12C [Prodrug P3, (8R,9S,10R,13S,14S,17S)-10,13-Dimethyl-3-oxo-2,3,6,7,8,9,10,11,12,13,14,15,16,17-tetradecahydro-1H-cyclopenta[α]phenanthren-17-yl dimethylglycinate]
- plasma levels compared with testosterone [1]: lower
- stability in rat brain homogenate [2]: moderately stable

SMILES: CC(C)[C@H](N)C(=O)N[C@@H](C(=O)O[C@H]1CC[C@H]2[C@@H]3CCC4=CC(=O)CC[C@]4(C)[C@H]3CC[C@]12C)C(C)C [Prodrug P4, (8R,9S,10R,13S,14S,17S)-10,13-Dimethyl-3-oxo-2,3,6,7,8,9,10,11,12,13,14,15,16,17-tetradecahydro-1H-cyclopenta[α]phenanthren-17-yl L-valyl-D-valinate]
- levels of testosterone release [1]: low levels

SMILES: CN1CCN(CC(=O)O[C@H]2CC[C@H]3[C@@H]4CCC5=CC(=O)CC[C@]5(C)[C@H]4CC[C@]23C)CC1 [Prodrug P5, (8R,9S,10R,13S,14S,17S)-10,13-Dimethyl-3-oxo-2,3,6,7,8,9,10,11,12,13,14,15,16,17-tetradecahydro-1H-cyclopenta[α]phenanthren-17-yl 2-(4-methylpiperazin-1-yl)acetate]
- levels of testosterone release [1]: low levels
- stability in rat brain homogenate [2]: stable

SMILES: C[C@]12CC[C@H]3[C@@H](CCC4=CC(=O)CC[C@@]43C)[C@@H]1CC[C@@H]2OC(=O)CN1CCOCC1 [Prodrug P6, (8R,9S,10R,13S,14S,17S)-10,13-Dimethyl-3-oxo-2,3,6,7,8,9,10,11,12,13,14,15,16,17-tetradecahydro-1H-cyclopenta[α]phenanthren-17-yl 2-morpholinoacetate]
- levels of testosterone release [1]: low levels
- stability in rat brain homogenate [2]: stable

SMILES: C[C@]12CC[C@H]3[C@@H](CCC4=CC(=O)CC[C@@]43C)[C@@H]1CC[C@@H]2OC(=O)C(Cl)Cl [Prodrug P7, (8R,9S,10R,13S,14S,17S)-10,13-Dimethyl-3-oxo-2,3,6,7,8,9,10,11,12,13,14,15,16,17-tetradecahydro-1H-cyclopenta[α]phenanthren-17-yl 2,2-dichloroacetate]
- stability in rat brain homogenate [2]: moderately stable

SMILES: CN(C)CC(=O)NCC(=O)O[C@H]1CC[C@H]2[C@@H]3CCC4=CC(=O)CC[C@]4(C)[C@H]3CC[C@]12C [Prodrug P8, (8R,9S,10R,13S,14S,17S)-10,13-Dimethyl-3-oxo-2,3,6,7,8,9,10,11,12,13,14,15,16,17-tetradecahydro-1H-cyclopenta[α]phenanthren-17-yl dimethylglycylglycinate]
- levels of testosterone release [1]: low levels
- stability in rat brain homogenate [2]: stable

SMILES: CN(C)CC(=O)NCC(=O)NCC(=O)O[C@H]1CC[C@H]2[C@@H]3CCC4=CC(=O)CC[C@]4(C)[C@H]3CC[C@]12C [Prodrug P9, (8R,9S,10R,13S,14S,17S)-10,13-Dimethyl-3-oxo-2,3,6,7,8,9,10,11,12,13,14,15,16,17-tetradecahydro-1H-cyclopenta[α]phenanthren-17-yl dimethylglycylglycylglycinate]
- stability in rat brain homogenate [2]: stable

SMILES: C[C@]12CC[C@H]3[C@@H](CCC4=CC(=O)CC[C@@]43C)[C@@H]1CC[C@@H]2OC(=O)CNC(=O)CN [Prodrug P10, (8R,9S,10R,13S,14S,17S)-10,13-Dimethyl-3-oxo-2,3,6,7,8,9,10,11,12,13,14,15,16,17-tetradecahydro-1H-cyclopenta[α]phenanthren-17-yl glycylglycinate]
- stability in rat brain homogenate [2]: moderately stable

SMILES: CC(C)C[C@H](NC(=O)CN(C)C)C(=O)O[C@H]1CC[C@H]2[C@@H]3CCC4=CC(=O)CC[C@]4(C)[C@H]3CC[C@]12C [Prodrug P11, (8R,9S,10R,13S,14S,17S)-10,13-Dimethyl-3-oxo-2,3,6,7,8,9,10,11,12,13,14,15,16,17-tetradecahydro-1H-cyclopenta[α]phenanthren-17-yl dimethylglycyl-L-leucinate]
- stability in rat brain homogenate [2]: stable

SMILES: CN(C)CC(=O)N[C@@H](Cc1ccccc1)C(=O)O[C@H]1CC[C@H]2[C@@H]3CCC4=CC(=O)CC[C@]4(C)[C@H]3CC[C@]12C [Prodrug P12, (8R,9S,10R,13S,14S,17S)-10,13-Dimethyl-3-oxo-2,3,6,7,8,9,10,11,12,13,14,15,16,17-tetradecahydro-1H-cyclopenta[α]phenanthren-17-yl dimethylglycyl-L-phenylalaninate]
- plasma levels compared with testosterone [1]: lower
- stability in rat brain homogenate [2]: stable

SMILES: CC(=O)N[C@@H](CCC(=O)O[C@H]1CC[C@H]2[C@@H]3CCC4=CC(=O)CC[C@]4(C)[C@H]3CC[C@]12C)C(=O)O [Prodrug P13, (S)-2-Acetamido-5-(((8R,9S,10R,13S,14S,17S)-10,13-dimethyl-3-oxo-2,3,6,7,8,9,10,11,12,13,14,15,16,17-tetradecahydro-1H-cyclopenta[α]phenanthren-17-yl)oxy)-5-oxopentanoic acid]
- levels of testosterone release [1]: low levels
- stability in rat brain homogenate [2]: stable

SMILES: C[C@]12CC[C@H]3[C@@H](CCC4=CC(=O)CC[C@@]43C)[C@@H]1CC[C@@H]2OC(=O)CC[C@H](N)C(=O)O [Prodrug P14, (S)-2-Amino-5-(((8R,9S,10R,13S,14S,17S)-10,13-dimethyl-3-oxo-2,3,6,7,8,9,10,11,12,13,14,15,16,17-tetradecahydro-1H-cyclopenta[α]phenanthren-17-yl)oxy)-5-oxopentanoic acid]
- levels of testosterone release [1]: low levels
- stability in rat brain homogenate [2]: stable
